Among the data in ChEMBL document CHEMBL1151841, “Dihydrostilbene derivatives from the Mongolian medicinal plant Scorzonera radiata” (J Nat Prod, 2009) are IC50 and Activity values, retold here.

For test [1], the system named is Radical scavenging activity. Description: Antioxidant activity assessed as DPPH radical scavenging activity after 5 mins. In kind it is functional. A general note: Loss of DPPH colour is used to gauge radical scavenging.
A further test deals with L5178Y. Description: Cytotoxicity against mouse L5178Y cells at 10 ug/mL by MTT assay. In kind it is functional, cell-based. (In general: Tetrazolium dyes change colour on reduction, which living cells bring about.)

pIC50: −log10 of the molar value. Calls of active or inactive are those of the source. No cut-off for these calls is given here.

In general, pIC50 refers to the negative decadic logarithm of the IC50, by convention in mol/L. Consider `Oc1ccc(/C=C/c2cc(O)cc(O)c2)cc1` [RESVERATROL], for which, in test [1], the pIC50 is 3.83.

With `CC(=O)c1c(O[C@@H]2O[C@H](CO)[C@@H](O)[C@H](O)[C@H]2O)ccc(O)c1CCc1ccc(O)cc1` [SCORZODIHYDROSTILBENE C], the pIC50 in test [1] is 3.31.

`COc1ccc(CCc2c(O)ccc(O[C@@H]3O[C@H](CO)[C@@H](O)[C@H](O)[C@H]3O)c2C(C)=O)cc1OC` [SCORZODIHYDROSTILBENE B]: in test [1], the pIC50 is 3.18. The outcome in the test with L5178Y was inactive.

As to `COc1cc(CCc2c(O)ccc(O[C@@H]3O[C@H](CO)[C@@H](O)[C@H](O)[C@H]3O)c2C(C)=O)cc(-c2cc(CCc3c(O)ccc(O[C@@H]4O[C@H](CO)[C@@H](O)[C@H](O)[C@H]4O)c3C(C)=O)cc(OC)c2O)c1O` [SCORZODIHYDROSTILBENE E], the pIC50 in test [1] is 3.99.

Consider `COc1cc(CCc2c(O)ccc(O[C@@H]3O[C@H](CO)[C@@H](O)[C@H](O)[C@H]3O)c2C(C)=O)ccc1O` [SCORZODIHYDROSTILBENE A], for which the pIC50 in test [1] is 3.98. Besides, in the test on L5178Y, the result was inactive.

With `COc1ccc(CCc2c(O[C@@H]3O[C@H](CO)[C@@H](O)[C@H](O)[C@H]3O)ccc(O)c2C(C)=O)cc1OC` [SCORZODIHYDROSTILBENE D], in test [1], the pIC50 is 3.14.
